# Values quoted from earlier work, collected in patent publication US20050003341A1, “Drug discovery assays based on the biology of atherosclerosis, cancer, and alopecia” (priority 2003, published 2005).
# Like-named read-outs stand apart in the source and are kept apart here.
# Key:
# papilla cells = details: 14 days; testosterone 345 nM, DHT 345 mM as printed
# ACE [1] = details: zofenopril 0.05 or 1, captopril 5, enalapril 0.5 mg/kg/day
# TF [2] = details: cultured monocytes
# ACE [3] = details: after 6 weeks
# TF [4] = details: mononuclear leukocytes exposed to endotoxin
# [5] = system: Moloney murine leukemia virus (MMuLV); Rous sarcoma virus (RSV); details: chick embryo fibroblasts
# AR mRNA [6] = details: 50 μg/ml, 4 hours
# ACE [7] = details: 5 mg/day vs placebo, 4 years
# TF antigen = details: starting on day 3, significant on day 28
# ACE [8] = system: ACE
# ACE [9] = details: 5 or 10 mg/day vs placebo, 4 years
# ACE [10] = system: ACE; remark: listed apart in the source
# TF mRNA = details: obese mice, 10 to 20 weeks of age
# AR mRNA [11] = details: LNCaP cells (Lin 2001)
compound,measurement,setting,value
"C[C@]12CC[C@H]3[C@@H](CCC4=CC(=O)CC[C@@]43C)[C@@H]1CC[C@@H]2O [Testosterone, testosterone]",papilla cell proliferation,papilla cells,significantly decreased
same,ERK phosphorylation,"ERK; a variety of cells, cited studies",increase
C[C@H](CS)C(=O)N1CCC[C@H]1C(=O)O [captopril],total lesion area compared to placebo,ACE [1],significantly decreased
same,TF antigen and mRNA,TF [2],decreased
same,number of subendothelial macrophage derived foam cells,"ACE [3]; week 4: 87±9, p<0.05",52±9 cell/mm^2
same,average size of a foam cell,"ACE [3]; week 4: 113±8, p<0.05",89±5 μm^2
same,area of fatty streak,"ACE [3]; week 4: 125±18, p<0.05","55±12 μm2×1,000"
same,area of extracellular lipid particles,"ACE [3]; week 4: 144±27, not significant","157±36 μm2×1,000"
same,increase in TF mRNA,TF [4],inhibited
same,cell size of macrophage derived foam cells,hamsters; controls 130±5,did not change
same,heart rate,hamsters; controls 376±6,348+6 beats/min
same,decrease in fatty streak area,"hamsters; p=0.092 pravastatin, p=0.056 captopril",35%
C/C=C/C/C=C/CCC(=O)[C@H]1O[C@H]1C(N)=O [cerulenin],Rous sarcoma virus (RSV) production,[5],inhibited
C[C@@H]1C[C@@H]([C@H](O)CC2CC(=O)NC(=O)C2)C(=O)[C@@H](C)C1 [cycloheximide],increase in AR mRNA,AR mRNA [6],1.7 ± 0.4 fold
CCOC(=O)[C@H](CCc1ccccc1)N[C@@H](C)C(=O)N1CCC[C@H]1C(=O)O [enalapril],total lesion area compared to placebo,ACE [1],no significant decrease
same,"changes in mean absolute diameter, minimum absolute diameter, percent diameter stenosis",ACE [7],no significant difference
CCCCc1nc(Cl)c(CO)n1Cc1ccc(-c2ccccc2-c2nn[nH]n2)cc1 [losartan],effect on plasma TF antigen levels,TF antigen,negative effect
CCOC(=O)[C@H](CCc1ccccc1)N[C@@H](C)C(=O)N1[C@H](C(=O)O)C[C@@H]2CCC[C@@H]21 [ramipril],progression slope of the mean maximum carotid intimal medial thickness (IMT),"ACE [8]; 10 mg/day, placebo 0.0217±0.0027, p=0.0033",0.0137±0.0024 mm/year
same,decrease in progression of carotid intima media thickness,ACE [8]; at 4.5 years,0.008 mm per year
same,"changes in thickness of the common carotid artery wall, or carotid plaque height",ACE [9],no significant difference
same,rate of death from cardiovascular causes,"ACE [10]; 10 mg/day, 4.5 years, placebo 8.1%",6.1%
same,rate of cardiac arrest,ACE [10]; placebo 1.3%,0.8%
same,rate of stroke,ACE [10]; placebo 4.9%,3.4%
same,rate of complications related to diabetes,ACE [10]; placebo 7.6%,6.4%
same,rate of heart failure,ACE [10]; placebo 11.6%,9.1%
same,rate of death from any cause,ACE [10]; placebo 12.2%,10.4%
same,rate of myocardial infarction,ACE [10]; placebo 12.3%,9.9%
same,rate of revascularization procedures,ACE [10]; placebo 18.8%,16.3%
same,"RR, cardiac arrest",ACE [10]; vs placebo,0.62
same,"RR, complications related to diabetes",ACE [10]; vs placebo,0.84
same,"RR, death from any cause",ACE [10]; vs placebo,0.84
same,"RR, death from cardiovascular causes",ACE [10]; vs placebo,0.74
same,"RR, heart failure",ACE [10]; vs placebo,0.77
same,"RR, myocardial infarction",ACE [10]; vs placebo,0.80
same,"RR, revascularization procedures",ACE [10]; vs placebo,0.85
same,"RR, stroke",ACE [10]; vs placebo,0.68
CCOC(=O)[C@H](CCc1ccccc1)N[C@H]1CS[C@H](c2cccs2)CN(CC(=O)O)C1=O [temocapril],increase in TF mRNA,TF mRNA,attenuated
IL-6: interleukin 6,AR mRNA,AR mRNA [11],decreased
same,ERK phosphorylation,ERK; LNCaP cells (Chen T 1999),increased
